Starred links: 1 amine or outer side, 2 acyl side, 3 side chain; linkers in the order of their positions; H or OH if unused. Positions of bridges follow the written chain, without caps; N, C: chain ends. Residues, ends and D or L forms follow the SMILES beside them. *: point of attachment. C20 diacid = O=C(O)CCCCCCCCCCCCCCCCCCC(=O)*; C18 diacid = O=C(O)CCCCCCCCCCCCCCCCC(=O)*; γGlu = O=C(O)[C@H](CCC(=O)[*:2])N[*:1]; AEEA = NCCOCCOCC(=O)O
The compounds below were run against T1, human natriuretic peptide receptor 2 (hNPR2) (Homo sapiens, UniProt P20594) (assay: In vitro hNPR2 activity assay (cGMP GloSensor reporter, HEK293)). Settings: potency relative to CNP22 (0065).
T1 construct: expressed in transfected cells; host or cells: HEK293 (ATCC CRL-1573), clone 35, co-transfected with pGloSensor-42F
T1 sequence (P20594 23-1047): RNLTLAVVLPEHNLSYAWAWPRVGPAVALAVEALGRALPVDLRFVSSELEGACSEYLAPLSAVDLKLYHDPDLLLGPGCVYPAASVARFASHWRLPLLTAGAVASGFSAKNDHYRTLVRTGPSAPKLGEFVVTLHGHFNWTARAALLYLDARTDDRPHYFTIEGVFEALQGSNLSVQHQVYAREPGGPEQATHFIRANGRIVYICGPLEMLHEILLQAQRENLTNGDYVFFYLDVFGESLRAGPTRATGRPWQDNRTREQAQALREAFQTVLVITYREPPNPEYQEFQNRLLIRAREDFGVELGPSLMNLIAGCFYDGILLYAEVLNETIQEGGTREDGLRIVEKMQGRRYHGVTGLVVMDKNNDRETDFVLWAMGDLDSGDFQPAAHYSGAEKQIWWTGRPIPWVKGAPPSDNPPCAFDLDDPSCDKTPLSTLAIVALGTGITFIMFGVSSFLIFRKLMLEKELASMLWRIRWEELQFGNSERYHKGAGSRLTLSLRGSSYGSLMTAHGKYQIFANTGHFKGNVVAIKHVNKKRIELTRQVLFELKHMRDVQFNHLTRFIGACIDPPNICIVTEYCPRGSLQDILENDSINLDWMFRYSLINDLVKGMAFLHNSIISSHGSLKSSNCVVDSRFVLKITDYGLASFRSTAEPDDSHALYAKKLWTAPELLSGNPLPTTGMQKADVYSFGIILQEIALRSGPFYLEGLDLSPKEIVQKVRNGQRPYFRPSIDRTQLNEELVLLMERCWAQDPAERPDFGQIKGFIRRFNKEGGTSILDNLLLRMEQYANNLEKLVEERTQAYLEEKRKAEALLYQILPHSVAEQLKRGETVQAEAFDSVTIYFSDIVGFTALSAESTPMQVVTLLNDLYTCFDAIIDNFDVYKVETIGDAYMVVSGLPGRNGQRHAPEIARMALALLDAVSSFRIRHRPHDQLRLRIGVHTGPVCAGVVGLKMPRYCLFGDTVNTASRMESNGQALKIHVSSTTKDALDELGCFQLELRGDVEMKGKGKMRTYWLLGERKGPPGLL
Type: cell-based
Summary of the method: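 Potency is the EC50 from a four-parameter logistic fit, also expressed relative to the in-plate CNP22 control (×100), with at least two replicates. Compounds (ten concentrations, […], HSA-free diluent with 1% OVA, 0.01% Tween20) were incubated 30 min at 37 °C on HEK293 cells co-expressing hNPR2 and a GloSensor cGMP luciferase. Luminescence detected with Bright-Glo.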
For CC[C@H](C)[C@@H]1NC(=O)[C@H](CCCNC(=N)N)NC(=O)[C@H](CC(=O)O)NC(=O)[C@H](CC(C)C)NC(=O)[C@@H]2CCCN2C(=O)[C@H](CC(C)C)NC(=O)CNC(=O)[C@H](Cc2ccccc2)NC(=O)[C@@H](NC(=O)CNC(=O)[C@H](CCC(N)=O)NC(=O)[C@H](CO)NC(=O)[C@H](CC(C)C)NC(=O)CNC(=O)[C@H](CCCCN)NC(=O)[C@H](CCCCN)NC(=O)[C@H](CCC(N)=O)NC(=O)[C@H](C)NC(=O)CNC(=O)[C@H](CCC(=O)O)NC(=O)[C@H](Cc2ccc(O)cc2)NC(=O)COCCOCCNC(=O)COCCOCCNC(=O)COCCOCCNC(=O)COCCOCCNC(=O)CC[C@H](NC(=O)CCCCCCCCCCCCCCCCC(=O)O)C(=O)O)CSSC[C@@H](C(=O)O)NC(=O)CNC(=O)[C@H](CC(C)C)NC(=O)CNC(=O)[C@H](CO)NC(=O)[C@H](CC(C)C)NC(=O)[C@H](CO)NC(=O)CNC1=O [compound 1393] ({C18 diacid-γGlu-AEEA-AEEA-AEEA-AEEA}-YEGAQKKGLSQGCFGLPLDRIGSLSGLGC-OH; disulfide 13-29), the “hNPR2 0% HSA. [EC50% rel CNP]” value was 27.8%.
For CC[C@H](C)[C@@H]1NC(=O)[C@H](CCCNC(=N)N)NC(=O)[C@H](CC(=O)O)NC(=O)[C@H](CC(C)C)NC(=O)[C@@H]2CCCN2C(=O)[C@H](CC(C)C)NC(=O)CNC(=O)[C@H](Cc2ccccc2)NC(=O)[C@@H](NC(=O)CNC(=O)[C@H](CCC(N)=O)NC(=O)[C@H](CO)NC(=O)[C@H](CC(C)C)NC(=O)CNC(=O)[C@H](CCCCN)NC(=O)[C@H](CCCCN)NC(=O)[C@H](CCC(N)=O)NC(=O)[C@H](C)NC(=O)CNC(=O)[C@H](CCC(=O)O)NC(=O)[C@H](Cc2ccc(O)cc2)NC(=O)[C@H](CCCCN)NC(=O)[C@H](CCCNC(=N)N)NC(=O)[C@H](C)NC(=O)[C@H](CCC(N)=O)NC(=O)[C@@H]2CCCN2C(=O)[C@H](Cc2c[nH]cn2)NC(=O)[C@H](CCC(=O)O)NC(=O)[C@H](CCC(N)=O)NC(=O)COCCOCCNC(=O)COCCOCCNC(=O)CC[C@H](NC(=O)CCCCCCCCCCCCCCCCC(=O)O)C(=O)O)CSSC[C@@H](C(=O)O)NC(=O)CNC(=O)[C@H](CC(C)C)NC(=O)CNC(=O)[C@H](CO)NC(=O)[C@H](CC(C)C)NC(=O)[C@H](CO)NC(=O)CNC1=O [compound 1394] ({C18 diacid-γGlu-AEEA-AEEA}-QEHPQARKYEGAQKKGLSQGCFGLPLDRIGSLSGLGC-OH; disulfide 21-37), the “hNPR2 0% HSA. [EC50% rel CNP]” value was 93.9%.
In the case of CC[C@H](C)[C@@H]1NC(=O)[C@H](CCCNC(=N)N)NC(=O)[C@H](CC(=O)O)NC(=O)[C@H](CC(C)C)NC(=O)[C@@H]2CCCN2C(=O)[C@H](CC(C)C)NC(=O)CNC(=O)[C@H](Cc2ccccc2)NC(=O)[C@@H](NC(=O)CNC(=O)[C@H](CCC(N)=O)NC(=O)[C@H](CO)NC(=O)[C@H](CC(C)C)NC(=O)CNC(=O)[C@H](CCCCN)NC(=O)[C@H](CCCCN)NC(=O)[C@H](CCC(N)=O)NC(=O)[C@H](C)NC(=O)CNC(=O)[C@H](CCC(=O)O)NC(=O)[C@H](Cc2ccc(O)cc2)NC(=O)[C@H](CCCCN)NC(=O)[C@H](C)NC(=O)[C@H](C)NC(=O)[C@H](CCC(N)=O)NC(=O)[C@@H]2CCCN2C(=O)[C@H](Cc2c[nH]cn2)NC(=O)[C@H](CCC(=O)O)NC(=O)[C@H](CCC(N)=O)NC(=O)COCCOCCNC(=O)COCCOCCNC(=O)CC[C@H](NC(=O)CCCCCCCCCCCCCCCCC(=O)O)C(=O)O)CSSC[C@@H](C(=O)O)NC(=O)CNC(=O)[C@H](CC(C)C)NC(=O)CNC(=O)[C@H](CO)NC(=O)[C@H](CC(C)C)NC(=O)[C@H](CO)NC(=O)CNC1=O [compound 1395] ({C18 diacid-γGlu-AEEA-AEEA}-QEHPQAAKYEGAQKKGLSQGCFGLPLDRIGSLSGLGC-OH; disulfide 21-37), the “hNPR2 0% HSA. [EC50% rel CNP]” value was 60.2%.
In the case of CC[C@H](C)[C@@H]1NC(=O)[C@H](CCCNC(=N)N)NC(=O)[C@H](CC(=O)O)NC(=O)[C@H](CC(C)C)NC(=O)[C@@H]2CCCN2C(=O)[C@H](CC(C)C)NC(=O)CNC(=O)[C@H](Cc2ccccc2)NC(=O)[C@@H](NC(=O)CNC(=O)[C@H](CCC(N)=O)NC(=O)[C@H](CO)NC(=O)[C@H](CC(C)C)NC(=O)CNC(=O)[C@H](CCCCN)NC(=O)[C@H](CCCCN)NC(=O)[C@H](CCC(N)=O)NC(=O)[C@H](C)NC(=O)CNC(=O)[C@H](CCC(=O)O)NC(=O)[C@H](Cc2ccc(O)cc2)NC(=O)[C@H](CCCCN)NC(=O)[C@H](CCCNC(=N)N)NC(=O)[C@H](C)NC(=O)[C@H](CCC(N)=O)NC(=O)[C@@H]2CCCN2C(=O)[C@H](Cc2c[nH]cn2)NC(=O)[C@H](CCC(=O)O)NC(=O)[C@H](CCC(N)=O)NC(=O)COCCOCCNC(=O)COCCOCCNC(=O)CC[C@H](NC(=O)CC[C@H](NC(=O)CCCCCCCCCCCCCCCCC(=O)O)C(=O)O)C(=O)O)CSSC[C@@H](C(=O)O)NC(=O)CNC(=O)[C@H](CC(C)C)NC(=O)CNC(=O)[C@H](CO)NC(=O)[C@H](CC(C)C)NC(=O)[C@H](CO)NC(=O)CNC1=O [compound 1396] ({C18 diacid-γGlu-γGlu-AEEA-AEEA}-QEHPQARKYEGAQKKGLSQGCFGLPLDRIGSLSGLGC-OH; disulfide 21-37), the “hNPR2 0% HSA. [EC50% rel CNP]” value was 43.1%.
In the case of CC[C@H](C)[C@@H]1NC(=O)[C@H](CCCNC(=N)N)NC(=O)[C@H](CC(=O)O)NC(=O)[C@H](CC(C)C)NC(=O)[C@@H]2CCCN2C(=O)[C@H](CC(C)C)NC(=O)CNC(=O)[C@H](Cc2ccccc2)NC(=O)[C@@H](NC(=O)CNC(=O)[C@H](CCC(N)=O)NC(=O)[C@H](CO)NC(=O)[C@H](CO)NC(=O)CNC(=O)[C@H](CCCCN)NC(=O)[C@H](CCCCN)NC(=O)[C@H](CCC(N)=O)NC(=O)[C@H](C)NC(=O)CNC(=O)[C@H](CCCCN)NC(=O)[C@H](Cc2ccc(O)cc2)NC(=O)[C@H](Cc2c[nH]cn2)NC(=O)[C@H](CCCNC(=N)N)NC(=O)[C@H](C)NC(=O)[C@H](CCC(N)=O)NC(=O)[C@@H]2CCCN2C(=O)[C@H](Cc2c[nH]cn2)NC(=O)[C@H](CCC(=O)O)NC(=O)[C@H](CCC(N)=O)NC(=O)COCCOCCNC(=O)COCCOCCNC(=O)CC[C@H](NC(=O)CC[C@H](NC(=O)CC[C@H](NC(=O)CC[C@H](NC(=O)CCCCCCCCCCCCCCCCC(=O)O)C(=O)O)C(=O)O)C(=O)O)C(=O)O)CSSC[C@@H](C(=O)O)NC(=O)CNC(=O)[C@H](CC(C)C)NC(=O)CNC(=O)[C@H](CO)NC(=O)[C@H](CC(C)C)NC(=O)[C@H](CO)NC(=O)CNC1=O [compound 1398] ({C18 diacid-γGlu-γGlu-γGlu-γGlu-AEEA-AEEA}-QEHPQARHYKGAQKKGSSQGCFGLPLDRIGSLSGLGC-OH; disulfide 21-37), the “hNPR2 0% HSA. [EC50% rel CNP]” value was 55.6%.
With CC[C@H](C)[C@@H]1NC(=O)[C@H](CCCNC(=N)N)NC(=O)[C@H](CC(=O)O)NC(=O)[C@H](CC(C)C)NC(=O)[C@@H]2CCCN2C(=O)[C@H](CC(C)C)NC(=O)CNC(=O)[C@H](Cc2ccccc2)NC(=O)[C@@H](NC(=O)CNC(=O)[C@H](CCC(N)=O)NC(=O)[C@H](CO)NC(=O)[C@H](CO)NC(=O)CNC(=O)[C@H](CCCCN)NC(=O)[C@H](CCCCN)NC(=O)[C@H](CCC(N)=O)NC(=O)[C@H](C)NC(=O)CNC(=O)[C@H](CCCCN)NC(=O)[C@H](Cc2ccc(O)cc2)NC(=O)[C@H](Cc2c[nH]cn2)NC(=O)[C@H](CCCNC(=N)N)NC(=O)[C@H](C)NC(=O)[C@H](CCC(N)=O)NC(=O)[C@@H]2CCCN2C(=O)[C@H](Cc2c[nH]cn2)NC(=O)[C@H](CCC(=O)O)NC(=O)[C@H](CCC(N)=O)NC(=O)COCCOCCNC(=O)COCCOCCNC(=O)CC[C@H](NC(=O)CC[C@H](NC(=O)CC[C@H](NC(=O)CC[C@H](NC(=O)CCCCCCCCCCCCCCCCCCC(=O)O)C(=O)O)C(=O)O)C(=O)O)C(=O)O)CSSC[C@@H](C(=O)O)NC(=O)CNC(=O)[C@H](CC(C)C)NC(=O)CNC(=O)[C@H](CO)NC(=O)[C@H](CC(C)C)NC(=O)[C@H](CO)NC(=O)CNC1=O [compound 1399] ({C20 diacid-γGlu-γGlu-γGlu-γGlu-AEEA-AEEA}-QEHPQARHYKGAQKKGSSQGCFGLPLDRIGSLSGLGC-OH; disulfide 21-37) the “hNPR2 0% HSA. [EC50% rel CNP]” value was 137.0%.
